Data set [1] in a line: Inhibition of Escherichia coli GroEL expressed in NEB-5-alpha Escherichia coli cells/Escherichia coli GroES expressed in Escherichia coli BL21(DE3) cells assessed as inhibition of GroEL/ES-mediated dMDH refolding by reporter analysis.
Data set [2] in a line: Inhibition of Escherichia coli GroEL expressed in NEB-5-alpha Escherichia coli cells/Escherichia coli GroES expressed in Escherichia coli BL21(DE3) cells assessed as inhibition of GroEL/ES-mediated dRho refolding by reporter analysis.
Data set [3] in a line: Inhibition of human mitochondrial HSP60 expressed in Escherichia coli Rosetta 2 (DE3) cells/human mitochondrial HSP10 expressed in Escherichia coli Rosetta 2 (DE3) pLysS cells assessed as inhibition of […]-mediated dMDH refolding by reporter analysis. It counts as mitochondria, Mitochondria.
Data set [4] is described as follows: Inhibition of refolded rhodanese reporter enzyme (unknown origin). Details: species or system Homo sapiens.
A short description of data set [5]: Inhibition of refolded MDH reporter enzyme (unknown origin). Details: species or system Homo sapiens.
Data set [6] concerns HCT-116. Description: Cytotoxicity against human HCT-116 cells assessed as reduction in cell viability incubated for 48 hrs by AlamarBlue-based assay. It counts as functional. Conditions: HCT-116, 48 h. (Alamar Blue is a resazurin reagent that responds to reducing activity.)
For data set [7], the system named is DLD-1. Description: Cytotoxicity against human DLD-1 cells assessed as reduction in cell viability incubated for 48 hrs by AlamarBlue-based assay. The format is functional. As to conditions: DLD-1, 48 h.
Data set [8] deals with HT-29. Description: Cytotoxicity against human HT-29 cells assessed as reduction in cell viability incubated for 48 hrs by AlamarBlue-based assay. The format is functional. As to conditions: HT-29, 48 h.
The subject of data set [9] is HCT-116. Briefly: Cytotoxicity against p53-/- human HCT-116 cells assessed as reduction in cell viability incubated for 48 hrs by AlamarBlue-based assay. It counts as functional. As to conditions: HCT-116, 48 h.
A short description of data set [10]: Cytotoxicity against human FHs74Int cells assessed as reduction in cell viability incubated for 48 hrs by AlamarBlue-based assay. It counts as toxicity.
Data set [11] can be described thus: Cytotoxicity against human FHC cells assessed as reduction in cell viability incubated for 48 hrs by AlamarBlue-based assay. It counts as toxicity.
The nature of data set [12]: Selectivity index, ratio of CC50 for cytotoxicity against non-cancerous cells to EC50 for cytotoxicity against human HCT-116 cells. As to conditions: non-cancerous cells versus HCT-116 cells, read-out: Ratio CC50/EC50. It counts as toxicity, cell-based.

In general, IC50 refers to the point on the concentration scale where inhibition reaches its midpoint. For orientation: EC50 means the concentration giving half of the maximal effect. By CC50 is commonly meant the concentration giving 50% cytotoxicity. With `CC(=O)Nc1ccc(C(=O)/C=C/c2ccco2)cc1`, the IC50 was 41 µM in [1]; 67 µM in data set [2]; 44 µM in data set [3]; greater than 100 µM in [4]; greater than 63 µM in data set [5]. For the same compound, the EC50 is 56 µM in data set [6], 84 µM in data set [7], 88 µM in [8] and 72 µM in [9]. Besides, the CC50 at 48 h is 99 µM in data set [10] and greater than 100 µM in [11]. In [12], the selectivity ratio was found to be 1.8.

For the compound `CC(=O)Nc1ccc(C(=O)/C=C/c2ccccc2)cc1`, the 50% inhibitory concentration (IC50) in data set [1] is 9.4 µM; in [2] it was 40 µM; in data set [3], 14 µM; in data set [4] it was greater than 100 µM; in data set [5], greater than 63 µM. Also, the EC50 in data set [6] turned out to be 11 µM; in data set [7], 28 µM; in data set [8], 13 µM; in data set [9] it was 11 µM. Also, the results for the CC50 at 48 h in data set [10] and in [11] were 58 µM and 86 µM, respectively. Also, in data set [12], the selectivity ratio is 6.7.

In the case of `COc1ccc(/C=C/C(=O)c2ccccc2)cc1` [4-METHOXY CHALCONE], the IC50 is 27 µM in data set [1]; 46 µM in [2]; 22 µM in data set [3]; greater than 100 µM in [4]; greater than 63 µM in [5]. For the same compound, the EC50 was 22 µM in [6], 52 µM in data set [7], 32 µM in data set [8] and 30 µM in data set [9]. The cytotoxic concentration (CC50) at 48 h in [10] came out at 91 µM; in [11] it was 99 µM. Besides, the selectivity ratio in [12] is 4.4.

Consider `O=C(/C=C/c1ccccc1)c1ccc(NC(=O)c2cccs2)cc1`, for which the IC50 in data set [1] was 3.8 µM; in data set [2], 20 µM; in data set [3], 4.7 µM; in data set [4] it was greater than 100 µM; in [5], greater than 63 µM. Further, the EC50 in [6] came to 12 µM; in [7] it was 35 µM; in data set [8] it was 28 µM; in [9], 16 µM. Moreover, the 50% cytotoxic concentration (CC50) at 48 h in data set [10] worked out at 40 µM; in data set [11], 83 µM. The selectivity ratio in data set [12] came out at 4.9.

With `O=C(/C=C/c1ccc(O)cc1)c1ccccc1` [4-HYDROXYCHALCONE], the IC50 in [1] is 20 µM; in [2] it was 39 µM; in [3], 21 µM; in data set [4] it was greater than 100 µM; in [5], greater than 63 µM. In addition, the EC50 was determined as 32 µM in data set [6], 51 µM in data set [7], 39 µM in data set [8] and 32 µM in [9]. In addition, the CC50 at 48 h in data set [10] is 97 µM; in data set [11] it was greater than 100 µM. In addition, the selectivity ratio in data set [12] stood at 3.1.

`COc1ccc(C(=O)/C=C/c2ccccc2)cc1` [4'-METHOXYCHALCONE]: the IC50 in [1] is 13 µM; in data set [2] it was 34 µM; in data set [3], 16 µM; in [4], greater than 100 µM; in data set [5], greater than 63 µM. Moreover, the EC50 in data set [6] amounted to 16 µM; in data set [7] it was 35 µM; in data set [8], 23 µM; in [9], 17 µM. Moreover, the CC50 at 48 h was 37 µM in [10] and 62 µM in data set [11]. Besides, in data set [12], the selectivity ratio came to 3.2.

For `Nc1ccc(C(=O)/C=C/c2ccco2)cc1`, the IC50 in data set [1] stood at 5.9 µM; in [2] it was 12 µM; in data set [3], 9.8 µM; in data set [4], 55 µM; in [5], 46 µM. In addition, the EC50 was found to be 21 µM in data set [6], 31 µM in data set [7], 28 µM in data set [8] and 24 µM in [9]. Further, the CC50 at 48 h was 86 µM in data set [10] and 90 µM in data set [11]. Further, the selectivity ratio in data set [12] amounted to 4.2.

As to `O=C(/C=C/c1ccccc1)c1ccc(NC(=O)c2ccccc2)cc1`, the IC50 in data set [1] is 4.3 µM; in data set [2], 27 µM; in data set [3], 5.9 µM; in data set [4] it was greater than 100 µM; in data set [5], greater than 63 µM. Besides, the EC50 in data set [6] was 17 µM; in data set [7], 46 µM; in [8], 36 µM; in data set [9], 28 µM. In addition, the CC50 at 48 h in data set [10] stood at 60 µM; in data set [11], 73 µM. In data set [12], the selectivity ratio came out at 3.9.

With `O=C(/C=C/c1ccc([N+](=O)[O-])cc1)c1ccc(O)c(O)c1`, the IC50 in data set [1] was 2 µM; in data set [2], 1.3 µM; in [3] it was 6.2 µM; in data set [4], 45 µM; in data set [5], greater than 63 µM. Further, the EC50 came out at 5.8 µM in data set [6], 9.6 µM in data set [7], 8.2 µM in [8] and 6.1 µM in data set [9]. Also, the CC50 at 48 h in [10] came to 11 µM; in data set [11], 28 µM. The selectivity ratio in data set [12] amounted to 3.4.

As for `O=C(/C=C/c1ccccc1)c1ccccc1` [CHALCONE], the IC50 in data set [1] was 7.1 µM; in data set [2], 27 µM; in [3], 8.6 µM; in data set [4] it was greater than 100 µM; in data set [5], greater than 63 µM. Also, the concentration giving a half-maximal response (EC50) in data set [6] amounted to 9.5 µM; in [7], 25 µM; in [8] it was 14 µM; in data set [9], 11 µM. Also, the figures for the CC50 at 48 h in data set [10] and in [11] were 46 µM and 71 µM, respectively. The selectivity ratio in [12] was 6.2.

`CC(=O)Nc1ccc(C(=O)/C=C/c2cccc([N+](=O)[O-])c2)cc1`: the IC50 in data set [1] is 2.1 µM; in [2], 7 µM; in data set [3] it was 7.7 µM; in data set [4], greater than 100 µM; in [5], greater than 63 µM. Further, the EC50 came to 1.7 µM in data set [6], 6.3 µM in data set [7], 2 µM in [8] and 1.8 µM in data set [9]. For the same compound, the CC50 at 48 h in data set [10] amounted to 12 µM; in data set [11], 15 µM. Besides, the selectivity ratio in data set [12] turned out to be 7.9.

In the case of `O=C(NCc1ccccc1)c1ccccc1`, the IC50 in [1] was greater than 100 µM; in [2], greater than 250 µM; in [3] it was greater than 100 µM; in data set [4], greater than 100 µM; in data set [5] it was greater than 63 µM. Also, the EC50 in [6], in data set [7], in data set [8] and in data set [9] was greater than 100 µM in each case. Besides, the CC50 at 48 h in data set [10] and in [11] was greater than 100 µM each time.

`OC(/C=C/c1ccccc1)c1ccccc1` (stereo unspecified): the IC50 in [1] is greater than 100 µM; in [2], greater than 250 µM; in data set [3], greater than 100 µM; in data set [4], greater than 100 µM; in data set [5], greater than 63 µM. Also, the EC50 in [6], in data set [7], in data set [8] and in data set [9] was greater than 100 µM each time. Moreover, the half-maximal cytotoxic concentration (CC50) at 48 h in data set [10] and in data set [11] was greater than 100 µM each time.

With `O=C(/C=C/c1ccco1)c1ccc(NC(=O)c2cccs2)cc1`, the IC50 in [1] was 6.7 µM; in data set [2] it was 9.7 µM; in data set [3], 12 µM; in data set [4] it was greater than 100 µM; in [5], greater than 63 µM. The EC50 was 33 µM in [6], 56 µM in data set [7], 50 µM in data set [8] and 45 µM in data set [9]. Also, the results for the CC50 at 48 h in data set [10] and in data set [11] were 68 µM and 93 µM, respectively. In addition, the selectivity ratio in [12] came to 2.4.

As for `O=C(CCc1ccccc1)c1ccccc1`, the IC50 was greater than 100 µM in data set [1]; greater than 250 µM in data set [2]; greater than 100 µM in data set [3]; greater than 100 µM in data set [4]; greater than 63 µM in data set [5]. The EC50 in data set [6], in [7], in [8] and in data set [9] was greater than 100 µM each time. The CC50 at 48 h in data set [10] and in [11] was greater than 100 µM in each case.

Turning to `O=C(/C=C/c1ccco1)c1ccc(NC(=O)c2ccccc2)cc1`, the half-maximal inhibitory concentration (IC50) is 21 µM in data set [1]; 37 µM in data set [2]; 20 µM in [3]; greater than 100 µM in [4]; greater than 63 µM in data set [5]. Also, the EC50 came out at 42 µM in data set [6], 69 µM in data set [7], 76 µM in data set [8] and 59 µM in [9]. Besides, the CC50 at 48 h in [10] and in data set [11] was greater than 100 µM in each case. Also, in data set [12], the selectivity ratio is 2.4.

As for `Nc1ccc(C(=O)/C=C/c2ccccc2)cc1`, the concentration for half-maximal inhibition (IC50) in [1] is 57 µM; in [2], 135 µM; in data set [3], 43 µM; in data set [4], greater than 100 µM; in data set [5] it was greater than 63 µM. In addition, the concentration giving a half-maximal response (EC50) amounted to 27 µM in data set [6], 33 µM in data set [7], 35 µM in [8] and 23 µM in data set [9]. Further, the CC50 at 48 h in data set [10] is 97 µM; in data set [11], greater than 100 µM. Also, the selectivity ratio in data set [12] worked out at 3.7.

The values are drawn from ChEMBL document CHEMBL5150040, “Bis-aryl-α,β-unsaturated ketone (ABK) chaperonin inhibitors exhibit selective cytotoxicity to colorectal cancer cells that correlates with levels of aberrant HSP60 in the cytosol” (Bioorg Med Chem, 2022).
